In brackets after ≈: the same amount, converted by molar mass.
Columns and labels:
[1] = tested on: Salmonella typhimurium; test: Antimicrobial activity against Salmonella typhimurium ATCC 19430 incubated for 18 hrs by agar dilution method; assay type: functional, Salmonella enterica subsp. enterica serovar Typhimurium; conditions: Salmonella enterica, ATCC 19430, 18 h
[2] = tested on: Staphylococcus aureus; test: Antimicrobial activity against Staphylococcus aureus ATCC 25923 incubated for 18 hrs by agar dilution method; assay type: functional; conditions: ATCC 25923, 18 h
[3] = tested on: Streptococcus pyogenes; test: Antimicrobial activity against Streptococcus pyogenes ATCC 19615 incubated for 18 hrs by agar dilution method; assay type: functional; conditions: ATCC 19615, 18 h
[4] = tested on: Pseudomonas aeruginosa; test: Antimicrobial activity against Pseudomonas aeruginosa ATCC 27853 incubated for 18 hrs by agar dilution method; assay type: functional; conditions: ATCC 27853, 18 h

Structure (SMILES)	MIC [1]	MIC [2]	MIC [3]	MIC [4]
CCn1cc(C(=O)NCC(=O)N2CCN(c3cc4c(cc3F)c(=O)c(C(=O)O)cn4C3CC3)CC2)c(=O)c2cc3c(cc21)OCO3	7.6 µM (≈ 4.8 µg/mL)	–	–	–
CCn1cc(C(=O)NCCC(=O)N2CCN(c3cc4c(cc3F)c(=O)c(C(=O)O)cn4C3CC3)CC2)c(=O)c2cc3c(cc21)OCO3	7.4 µM (≈ 4.78 µg/mL)	1940 µM (≈ 1250 µg/mL)	1940 µM (≈ 1250 µg/mL)	1940 µM (≈ 1250 µg/mL)
CCn1cc(C(=O)NCCCC(=O)N2CCN(c3cc4c(cc3F)c(=O)c(C(=O)O)cn4C3CC3)CC2)c(=O)c2cc3c(cc21)OCO3	59.1 µM (≈ 39 µg/mL)	1890 µM (≈ 1250 µg/mL)	1890 µM (≈ 1250 µg/mL)	1890 µM (≈ 1250 µg/mL)
CC[C@H](C)[C@H](NC(=O)c1cn(CC)c2cc3c(cc2c1=O)OCO3)C(=O)N1CCN(c2cc3c(cc2F)c(=O)c(C(=O)O)cn3C2CC2)CC1	909 µM (≈ 625 µg/mL)	454 µM (≈ 313 µg/mL)	1820 µM (≈ 1250 µg/mL)	1820 µM (≈ 1250 µg/mL)
CCn1cc(C(=O)N[C@@H](Cc2ccccc2)C(=O)N2CCN(c3cc4c(cc3F)c(=O)c(C(=O)O)cn4C3CC3)CC2)c(=O)c2cc3c(cc21)OCO3	433 µM (≈ 313 µg/mL)	1730 µM (≈ 1250 µg/mL)	1730 µM (≈ 1250 µg/mL)	1730 µM (≈ 1250 µg/mL)
CCn1cc(C(=O)N[C@@H](Cc2c[nH]c3ccccc23)C(=O)N2CCN(c3cc4c(cc3F)c(=O)c(C(=O)O)cn4C3CC3)CC2)c(=O)c2cc3c(cc21)OCO3	25.6 µM (≈ 19.5 µg/mL)	51.3 µM (≈ 39 µg/mL)	411 µM (≈ 313 µg/mL)	411 µM (≈ 313 µg/mL)
CCn1cc(C(=O)O)c(=O)c2cc(F)c(N3CCN(C(=O)CNC(=O)c4cn(CC)c5nc(C)ccc5c4=O)CC3)cc21	2120 µM (≈ 1250 µg/mL)	33 µM (≈ 19.5 µg/mL)	–	–
CCn1cc(C(=O)O)c(=O)c2cc(F)c(N3CCN(C(=O)CCNC(=O)c4cn(CC)c5nc(C)ccc5c4=O)CC3)cc21	2070 µM (≈ 1250 µg/mL)	2070 µM (≈ 1250 µg/mL)	2070 µM (≈ 1250 µg/mL)	2070 µM (≈ 1250 µg/mL)
CCn1cc(C(=O)O)c(=O)c2cc(F)c(N3CCN(C(=O)CCCNC(=O)c4cn(CC)c5nc(C)ccc5c4=O)CC3)cc21	505 µM (≈ 312 µg/mL)	505 µM (≈ 312 µg/mL)	1010 µM (≈ 625 µg/mL)	505 µM (≈ 312 µg/mL)
CC[C@H](C)[C@H](NC(=O)c1cn(CC)c2nc(C)ccc2c1=O)C(=O)N1CCN(c2cc3c(cc2F)c(=O)c(C(=O)O)cn3CC)CC1	1930 µM (≈ 1250 µg/mL)	1930 µM (≈ 1250 µg/mL)	1930 µM (≈ 1250 µg/mL)	1930 µM (≈ 1250 µg/mL)
CCn1cc(C(=O)O)c(=O)c2cc(F)c(N3CCN(C(=O)[C@H](Cc4ccccc4)NC(=O)c4cn(CC)c5nc(C)ccc5c4=O)CC3)cc21	115 µM (≈ 78.1 µg/mL)	28.6 µM (≈ 19.5 µg/mL)	459 µM (≈ 313 µg/mL)	918 µM (≈ 625 µg/mL)
CCn1cc(C(=O)O)c(=O)c2cc(F)c(N3CCN(C(=O)[C@H](Cc4c[nH]c5ccccc45)NC(=O)c4cn(CC)c5nc(C)ccc5c4=O)CC3)cc21	868 µM (≈ 625 µg/mL)	1740 µM (≈ 1250 µg/mL)	1740 µM (≈ 1250 µg/mL)	1740 µM (≈ 1250 µg/mL)
CCn1cc(C(=O)O)c(=O)c2cc(F)c(N3CCN(C(=O)CNC(=O)c4cn(CC)c5cc6c(cc5c4=O)OCO6)CC3)cc21	2020 µM (≈ 1250 µg/mL)	–	–	–
CCn1cc(C(=O)O)c(=O)c2cc(F)c(N3CCN(C(=O)CCNC(=O)c4cn(CC)c5cc6c(cc5c4=O)OCO6)CC3)cc21	61.6 µM (≈ 39 µg/mL)	30.8 µM (≈ 19.5 µg/mL)	247 µM (≈ 156 µg/mL)	493 µM (≈ 313 µg/mL)
CCn1cc(C(=O)O)c(=O)c2cc(F)c(N3CCN(C(=O)CCCNC(=O)c4cn(CC)c5cc6c(cc5c4=O)OCO6)CC3)cc21	–	482 µM (≈ 312 µg/mL)	965 µM (≈ 625 µg/mL)	–
CC[C@H](C)[C@H](NC(=O)c1cn(CC)c2cc3c(cc2c1=O)OCO3)C(=O)N1CCN(c2cc3c(cc2F)c(=O)c(C(=O)O)cn3CC)CC1	1850 µM (≈ 1250 µg/mL)	1850 µM (≈ 1250 µg/mL)	1850 µM (≈ 1250 µg/mL)	462 µM (≈ 313 µg/mL)
CCn1cc(C(=O)O)c(=O)c2cc(F)c(N3CCN(C(=O)[C@H](Cc4ccccc4)NC(=O)c4cn(CC)c5cc6c(cc5c4=O)OCO6)CC3)cc21	1760 µM (≈ 1250 µg/mL)	1760 µM (≈ 1250 µg/mL)	1760 µM (≈ 1250 µg/mL)	1760 µM (≈ 1250 µg/mL)
CCn1cc(C(=O)O)c(=O)c2cc(F)c(N3CCN(C(=O)[C@H](Cc4c[nH]c5ccccc45)NC(=O)c4cn(CC)c5cc6c(cc5c4=O)OCO6)CC3)cc21	1670 µM (≈ 1250 µg/mL)	1670 µM (≈ 1250 µg/mL)	1670 µM (≈ 1250 µg/mL)	1670 µM (≈ 1250 µg/mL)
CCn1cc(C(=O)NCC(=O)N2CCN(c3cc4c(cc3F)c(=O)c(C(=O)O)cn4C3CC3)CC2)c(=O)c2ccc(C)nc21	64.7 µM (≈ 39 µg/mL)	–	–	–
CCn1cc(C(=O)NCCC(=O)N2CCN(c3cc4c(cc3F)c(=O)c(C(=O)O)cn4C3CC3)CC2)c(=O)c2ccc(C)nc21	15.7 µM (≈ 9.68 µg/mL)	1010 µM (≈ 625 µg/mL)	7.8 µM (≈ 4.81 µg/mL)	2030 µM (≈ 1250 µg/mL)
CC[C@H](C)[C@H](NC(=O)c1cn(CC)c2nc(C)ccc2c1=O)C(=O)N1CCN(c2cc3c(cc2F)c(=O)c(C(=O)O)cn3C2CC2)CC1	1900 µM (≈ 1250 µg/mL)	1900 µM (≈ 1250 µg/mL)	1900 µM (≈ 1250 µg/mL)	1900 µM (≈ 1250 µg/mL)
CCn1cc(C(=O)N[C@@H](Cc2ccccc2)C(=O)N2CCN(c3cc4c(cc3F)c(=O)c(C(=O)O)cn4C3CC3)CC2)c(=O)c2ccc(C)nc21	1800 µM (≈ 1250 µg/mL)	1800 µM (≈ 1250 µg/mL)	1800 µM (≈ 1250 µg/mL)	1800 µM (≈ 1250 µg/mL)
CCn1cc(C(=O)N[C@@H](Cc2c[nH]c3ccccc23)C(=O)N2CCN(c3cc4c(cc3F)c(=O)c(C(=O)O)cn4C3CC3)CC2)c(=O)c2ccc(C)nc21	427 µM (≈ 312 µg/mL)	3.3 µM (≈ 2.41 µg/mL)	854 µM (≈ 625 µg/mL)	1710 µM (≈ 1250 µg/mL)
O=C(O)c1cn(C2CC2)c2cc(N3CCNCC3)c(F)cc2c1=O [CIPROFLOXACIN]	9.2 µM (≈ 3.05 µg/mL)	74.6 µM (≈ 24.7 µg/mL)	2390 µM (≈ 793 µg/mL)	74.6 µM (≈ 24.7 µg/mL)
CCn1cc(C(=O)O)c(=O)c2ccc(C)nc21 [NALIDIXIC ACID]	7.2 µM (≈ 1.67 µg/mL)	3770 µM (≈ 876 µg/mL)	3770 µM (≈ 876 µg/mL)	14.5 µM (≈ 3.37 µg/mL)
CCn1cc(C(=O)O)c(=O)c2cc(F)c(N3CCNCC3)cc21 [NORFLOXACIN]	10.3 µM (≈ 3.29 µg/mL)	1350 µM (≈ 430 µg/mL)	1350 µM (≈ 430 µg/mL)	336 µM (≈ 107 µg/mL)
CCn1cc(C(=O)O)c(=O)c2cc3c(cc21)OCO3 [OXOLINIC ACID]	7.5 µM (≈ 1.96 µg/mL)	3910 µM (≈ 1020 µg/mL)	1960 µM (≈ 511 µg/mL)	15 µM (≈ 3.92 µg/mL)

Source: ChEMBL document CHEMBL3608264, “Novel antibacterial active quinolone-fluoroquinolone conjugates and 2D-QSAR studies” (2015)
